Measurements published in ChEMBL document CHEMBL1201862, “PubChem BioAssay data set” (2004).
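Tested at 5 concentrations; 48 h exposure; 96-well plates; endpoints linearly interpolated, else capped at highest concentration. Abbreviation: GI50, concentration required for 50% inhibition of growth.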 The source made the active and inactive calls. Rule as the data show it: active = GI50 up to about 1.1 µM and inactive = higher.

Key:
Test in all cases: NCI-60 cell line screen, 48 h
786-0 = tested on: 786-0
A498 = tested on: A498
A549 = tested on: A549
ACHN = tested on: ACHN
CAKI-1 = tested on: CAKI-1
CCRF-CEM = tested on: CCRF-CEM
COLO 205 = tested on: COLO 205
DLD-1 = tested on: DLD-1
DMS-114 = tested on: DMS-114
DMS-273 = tested on: DMS-273
EKVX = tested on: EKVX
HCC 2998 = tested on: HCC 2998
HCT-116 = tested on: HCT-116
HCT-15 = tested on: HCT-15
HL-60 = tested on: HL-60
HOP-18 = tested on: HOP-18
HOP-62 = tested on: HOP-62
HOP-92 = tested on: HOP-92
HT-29 = tested on: HT-29
IGROV-1 = tested on: IGROV-1
K562 = tested on: K562
KM-20L2 = tested on: KM-20L2
KM12 = tested on: KM12
LOX IMVI = tested on: LOX IMVI
LXFL 529 = tested on: LXFL 529
M14 = tested on: M14
M19-MEL = tested on: M19-MEL
MOLT-4 = tested on: MOLT-4
Malme-3M = tested on: Malme-3M
NCI-H226 = tested on: NCI-H226
NCI-H23 = tested on: NCI-H23
NCI-H460 = tested on: NCI-H460
OVCAR-3 = tested on: OVCAR-3
OVCAR-4 = tested on: OVCAR-4
OVCAR-5 = tested on: OVCAR-5
OVCAR-8 = tested on: OVCAR-8
RPMI-8226 = tested on: RPMI-8226
RXF 393 = tested on: RXF 393
RXF 631 = tested on: RXF 631
SF-268 = tested on: SF-268
SF-295 = tested on: SF-295
SF-539 = tested on: SF-539
SK-MEL-28 = tested on: SK-MEL-28
SK-MEL-2 = tested on: SK-MEL-2
SK-MEL-5 = tested on: SK-MEL-5
SK-OV-3 = tested on: SK-OV-3
SN12C = tested on: SN12C
SNB-75 = tested on: SNB-75
SNB-78 = tested on: SNB-78
SR = tested on: SR
SW-620 = tested on: SW-620
TK-10 = tested on: TK-10
U-251 = tested on: U-251
UACC-257 = tested on: UACC-257
UACC-62 = tested on: UACC-62
UO-31 = tested on: UO-31
XF498 = tested on: XF498

Measured: GI50

N#Cc1cnsc1
> 100 µM: HCT-15
inactive: 786-0 > 100 µM | A498 > 100 µM | A549 > 100 µM | ACHN > 100 µM | CAKI-1 > 100 µM | CCRF-CEM > 100 µM | COLO 205 > 100 µM | DLD-1 > 100 µM | DMS-114 > 100 µM | DMS-273 > 100 µM | EKVX > 100 µM | HCC 2998 > 100 µM | HCT-116 > 100 µM | HL-60 > 100 µM | HOP-18 > 100 µM | HOP-62 > 100 µM | HOP-92 > 100 µM | HT-29 > 100 µM | IGROV-1 > 100 µM | K562 > 100 µM | KM-20L2 > 100 µM | KM12 > 100 µM | LOX IMVI > 100 µM | LXFL 529 > 100 µM | M14 > 100 µM | M19-MEL > 100 µM | MOLT-4 > 100 µM | Malme-3M > 100 µM | NCI-H226 > 100 µM | NCI-H23 > 100 µM | NCI-H460 > 100 µM | OVCAR-3 > 100 µM | OVCAR-4 > 100 µM | OVCAR-5 > 100 µM | OVCAR-8 > 100 µM | RPMI-8226 > 100 µM | RXF 393 > 100 µM | RXF 631 > 100 µM | SF-268 > 100 µM | SF-295 > 100 µM | SF-539 > 100 µM | SK-MEL-28 > 100 µM | SK-MEL-2 > 100 µM | SK-MEL-5 > 100 µM | SK-OV-3 > 100 µM | SN12C > 100 µM | SNB-75 > 100 µM | SNB-78 > 100 µM | SR > 100 µM | SW-620 > 100 µM | TK-10 > 100 µM | U-251 > 100 µM | UACC-257 > 100 µM | UACC-62 > 100 µM | UO-31 > 100 µM | XF498 > 100 µM
